Legend:
SF-1 = molecular target: T1, SF-1 (Homo sapiens, UniProt Q13285); experiment: SF1 degradation induction in NCI-H295R SF-1-HiBiT cells (HiBiT DC50); type: cell-based; conditions: 24 hr, concentration that induces 50% degradation of SF-1
T1 construct: NCI-H295R SF-1-HiBiT cells with HiBiT tag knocked in at the endogenous SF1 locus; host or cells: NCI-H295R SF-1-HiBiT (knock-in at endogenous locus)
Procedure, shortened: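 NCI-H295R cells carrying HiBiT-tagged SF-1, plated and grown 24 hr, then exposed to serially diluted compounds for 24 hr at 37° C. Remaining SF-1 read by lytic HiBiT luminescence; degradation rate from treated vs compound-free signal, DC50 as concentration giving 50% degradation.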

NCI-H295R cells = experiment: Proliferation inhibitory action on NCI-H295R (CellTiter-Glo, 7 days); type: cell-based, human; conditions: Homo sapiens, NCI-H295R, 168 h
Procedure, shortened: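 Compounds serially diluted in DMSO; cells seeded at 2×10^3 cells/well and cultured 7 days at 37° C, 5% CO2. CellTiter-Glo 2.0 luminescence read at day 0 and day 7; proliferation rate derived from compound-addition-day signal, untreated day-7 signal and treated day-7 signal.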

mouse uterus = experiment: Inhibitory activity on normal mouse uterine weight (inhibitory action on estrogen activity); type: in vivo; conditions: female NSG mice, oral 100 mg/kg/day QD x 8, 24 hr after final administration, relative to vehicle control group
Method: Female NSG mice were purchased from Charles River Japan, Inc. From the day of grouping, each compound was orally administered at a dose of 100 mg/kg/day once a day for 8 consecutive days (QD×8). To the vehicle-control group was administered 0.5% methylcellulose. 24 hr after the final administration, the wet weight of the mouse uterus was measured, and the relative uterine weight (%) to the vehicle control group was calculated by the following formula.
The relative uterine weight (unit: %) of the compound corresponding to each Example No. to the vehicle control group is shown in Table 100.

[1] = tested on: NCI-H295R cell subcutaneous transplant model; experiment: Antitumor activity against NCI-H295R cell subcutaneous transplant model (adrenocortical carcinoma); type: in vivo, mouse; conditions: female NSG mice, oral 30 mg/kg/day QD x 10 to 11, day the test was terminated
Method: NCI-H295R cells were subcutaneously transplanted at 1.0 to 2.0×10^7 cells/head into the right flank of female NSG mice and, when the estimated tumor volume (major axis×minor axis×minor axis/2) reached 100 to 300 mm^3, the mice were divided into groups of 4 to 5 mice each such that no difference was present between groups. Female NSG mice were purchased from Charles River Japan Co., Ltd. From the day of grouping, each compound was orally administered at a dose of 30 mg/kg/day once a day for 10 to 11 consecutive days (QD×10 to 11). Individual estimated tumor volumes were measured from the day of grouping until 11 to 12 days after grouping (the day the test was terminated). To the vehicle-control group was administered 0.5% methylcellulose containing 6.2-6.4 mM mesylic acid.
The antitumor activity against the NCI-H295R cell subcutaneous transplant model in Experimental Example 5 was calculated by the following formula on the day the test was terminated.

[2] = tested on: xenograft model derived from a prostate cancer patient; experiment: Antitumor activity in human prostate cancer cell subcutaneous transplant model (patient-derived xenograft); type: in vivo, mouse; conditions: male NSG mice, oral 100 mg/kg/day QD x 28 to 32, day of completion of test
Text: A xenograft model derived from a prostate cancer patient (obtained from the National Institute of Biomedical Innovation (NIBIO)) was used for antitumor evaluation. Tumors excised from seed mice were cut into about 4-5 mm squares and subcutaneously transplanted into the right flank of male NSG mice. On the fourth day after transplantation, the mice were divided into groups of 8 to 10 mice each to ensure uniformity of the seed mice. From the day of grouping, each compound was orally administered once a day at a dose of 100 mg/kg/day for 28 to 32 consecutive days (QD x 28 to 32). Individual estimated tumor volumes were measured from the day of grouping until the day after the final administration (the day of completion of test). To the vehicle-control group was administered 0.5% methylcellulose containing 21.3 mM mesylic acid.
The antitumor activity in the human prostate cancer cell subcutaneous transplant model was calculated by the following formula on the day of completion of each test.

For `COc1ccc([C@]2(CCN(Cc3ccc(C4=CC[C@H](CN5CCN(C(=O)c6ccc7c8c6NCCn8c(=O)n7C6CCC(=O)NC6=O)CC5)CC4)cc3)CC(C)(C)C(F)(F)F)CCOC(C)(C)C2)cc1` (stereo partly drawn) [BY7, 3-{7-[(4-{[(4R)-4′-{[{2-[(4R)-4-(4-Methoxyphenyl)-2,2-dimethyltetrahydro-2H-pyran-4-yl]ethyl)(3,3,3-trifluoro-2,2-dimethylpropyl)amino]methyl}-2,3,4,5-tetrahydro[biphenyl]-4-yl]methyl}piperazin-1-yl)carbonyl]-2-oxo-5,6-dihydro-4H-imidazo[1,5,4-de]quinoxalin-1(2H)-yl}piperidine-2,6-dione], the DC50 (SF-1) was 7.3 nM, the GI50 (NCI-H295R cells) was 54 nM and the “relative uterine weight (%)” value (mouse uterus) was 42%. The “tumor growth inhibition rate (%)” value [1] was 118% and the “tumor growth inhibition rate (%)” value [2] was 38%.

`COc1ccc([C@]2(CCN(Cc3ccc(C4=CC[C@H](C(=O)N5CCC(Nc6ccc7c8c6CCCn8c(=O)n7C6CCC(=O)NC6=O)CC5)CC4)c(F)c3)CC(C)(C)C(F)(F)F)CCOC(C)(C)C2)cc1` (stereo partly drawn) [BK9, 3-{7-[(1-{[(4R)-2′-Fluoro-4′-{[{2-[(4R)-4-(4-methoxyphenyl)-2,2-dimethyltetrahydro-2H-pyran-4-yl]ethyl)(3,3,3-trifluoro-2,2-dimethylpropyl)amino]methyl}-2,3,4,5-tetrahydro[biphenyl]-4-yl]carbonyl}piperidin-4-yl)amino]-2-oxo-5,6-dihydro-4H-imidazo[4,5,1-ij]quinolin-1(2H)-yl}piperidine-2,6-dione] was tested, and the DC50 (SF-1) was 3.2 nM, the GI50 (NCI-H295R cells) was 24 nM and the “relative uterine weight (%)” value (mouse uterus) was 56%. For the same molecule, the “tumor growth inhibition rate (%)” value [1] was 131% and the “tumor growth inhibition rate (%)” value [2] was 43%.

In the case of `COc1ccc([C@]2(CCN(Cc3ccc(C4=CC[C@H](CN5CCN(C(=O)c6ccc7c8c6CCCn8c(=O)n7C6CCC(=O)NC6=O)CC5)CC4)cc3)CC(C)(C)C(F)(F)F)CCOC(C)(C)C2)cc1` (stereo partly drawn) [AW5, 3-{7-[(4-{[(4R)-4′-{[{2-[(4R)-4-(4-Methoxyphenyl)-2,2-dimethyltetrahydro-2H-pyran-4-yl]ethyl)(3,3,3-trifluoro-2,2-dimethylpropyl)amino]methyl}-2,3,4,5-tetrahydro[biphenyl]-4-yl]methyl}piperazin-1-yl)carbonyl]-2-oxo-5,6-dihydro-4H-imidazo[4,5,1-ij]quinolin-1(2H)-yl}piperidine-2,6-dione], the DC50 (SF-1) is reported as 12 nM, the GI50 (NCI-H295R cells) is reported as 85 nM and the “relative uterine weight (%)” value (mouse uterus) is reported as 74%. For the same molecule, the “tumor growth inhibition rate (%)” value [1] was 109% and the “tumor growth inhibition rate (%)” value [2] was 10%.
